Assay results taken from patent US10112937B2, “P2X7 modulators and methods of use” (Janssen Pharmaceutica NV, priority 2013, dated 2018).

Tests used:
Format in all cases: cell-based
human P2X7 [1] = target: T1, human P2X7 (Homo sapiens (Human), UniProt Q99572); test: P2X7 antagonism in human PBMCs (IL-1β release after LPS + Bz-ATP, ELISA); conditions: human PBMCs; for PBMC 1 μM (% control): test compound 1 μM
human P2X7 [2] = target: T1, human P2X7; test: Ca2+ flux (FLIPR) in 1321N1 cells expressing recombinant human P2X7;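 also: cells loaded with Calcium-4 dye, preincubated with test compound for 30 min, fluorescence change read 180 s after agonist addition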
Protocol: (§1) P2X7 Antagonism in Recombinant Human P2X7 Cells or Recombinant Rat P2X7 Cells: (a) Ca^2+ Flux and (b) Radioligand Binding
(§2) 1321N1 cells expressing the recombinant human or rat P2X7 channel was cultured in HyQ DME/(HyClone/Dulbecco's Modified Eagle Medium) high glucose supplemented with 10% Fetal Bovine Serum (FBS) and appropriate selection marker. Cells were seeded at a density of 25000 cells/well (96-well clear bottom black walled plates) in 100 μl volume/well. On the day of the experiment, cell plates were washed with assay buffer, containing (in mM): 130 NaCl, 2 KCl, 1 CaCl2, 1 MgCl2, 10 HEPES, 5 glucose; pH 7.40 and 300 mOs. After the wash, cells were loaded with the Calcium-4 dye (Molecular Device) and incubated in the dark for 60 minutes. Test compounds were prepared at 250× the test concentration in neat DMSO. Intermediate 96-well compound plates were prepared by transferring 1.2 μL of the compound into 300 μL of assay buffer. A further 3× dilution occurred when transferring 50 μL/well of the compound plate to 100 μL/well in the cell plate. Cells were incubated with test compounds and dye for 30 minutes. […] The fluorescence change was measured 180 seconds after adding the agonist.

rat P2X7 = rat P2X7 (Rattus norvegicus (Rat), UniProt Q64663); test: Ca2+ flux (FLIPR) in 1321N1 cells expressing recombinant rat P2X7;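 also: Calcium-4 dye fluorescence change read 180 s after agonist addition, with cells preincubated 30 min with compound and dye in 96-well plates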
Protocol: as §1, §2

[3] = 1321N1 cells, recombinant human P2X7, 250 μM BzATP
[4] = 1321N1 cells, recombinant rat P2X7, 250 μM BzATP
[5] = 10 μM test compound, LPS + Bz-ATP
[6] = Ca2+ flux, 250 μM BzATP, human P2X7 1321N1 cells
[7] = Ca2+ flux, 250 μM BzATP, rat P2X7 1321N1 cells

Chain of rat P2X7 (Q64663 whole entry): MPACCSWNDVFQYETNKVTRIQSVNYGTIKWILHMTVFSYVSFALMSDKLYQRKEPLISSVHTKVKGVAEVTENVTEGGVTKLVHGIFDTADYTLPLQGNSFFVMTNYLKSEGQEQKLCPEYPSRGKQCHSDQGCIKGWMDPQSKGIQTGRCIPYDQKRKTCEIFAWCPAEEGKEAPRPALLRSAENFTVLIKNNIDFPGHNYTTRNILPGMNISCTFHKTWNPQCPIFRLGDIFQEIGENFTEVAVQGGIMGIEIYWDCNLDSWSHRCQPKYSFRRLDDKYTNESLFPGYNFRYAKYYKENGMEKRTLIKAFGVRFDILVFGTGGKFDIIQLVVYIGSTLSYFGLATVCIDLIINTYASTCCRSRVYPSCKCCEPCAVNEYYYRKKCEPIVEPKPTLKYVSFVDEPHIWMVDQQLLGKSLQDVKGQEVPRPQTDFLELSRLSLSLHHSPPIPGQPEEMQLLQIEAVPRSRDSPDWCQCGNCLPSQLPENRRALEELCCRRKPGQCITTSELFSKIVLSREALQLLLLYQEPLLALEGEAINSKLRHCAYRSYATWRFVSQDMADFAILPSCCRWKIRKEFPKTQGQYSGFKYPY
T1 sequence (Q99572 whole entry): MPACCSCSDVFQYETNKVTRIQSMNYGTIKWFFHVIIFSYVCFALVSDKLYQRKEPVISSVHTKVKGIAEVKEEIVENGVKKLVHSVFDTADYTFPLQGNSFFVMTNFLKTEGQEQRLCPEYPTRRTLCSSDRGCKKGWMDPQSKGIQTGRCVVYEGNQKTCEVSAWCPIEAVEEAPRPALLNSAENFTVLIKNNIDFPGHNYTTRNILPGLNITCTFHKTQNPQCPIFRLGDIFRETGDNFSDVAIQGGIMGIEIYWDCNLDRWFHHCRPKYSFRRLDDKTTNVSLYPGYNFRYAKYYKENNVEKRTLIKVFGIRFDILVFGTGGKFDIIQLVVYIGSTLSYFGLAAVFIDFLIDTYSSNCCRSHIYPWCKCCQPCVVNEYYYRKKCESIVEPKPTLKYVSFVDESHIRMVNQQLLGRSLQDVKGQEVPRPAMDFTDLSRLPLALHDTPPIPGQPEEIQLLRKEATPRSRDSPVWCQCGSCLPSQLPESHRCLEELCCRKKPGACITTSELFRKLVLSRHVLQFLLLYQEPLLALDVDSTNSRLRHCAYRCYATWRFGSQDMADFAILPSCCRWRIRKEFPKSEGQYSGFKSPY

**Q.** Which “PBMC 10 μM (% control)” value (human P2X7 [1]; test compound 10 μM) does the source give for `Cc1c(C(=O)N2Cc3nnn(-c4ccn[nH]4)c3C[C@@H]2C)cccc1C(F)(F)F` (single isomer, unassigned) [Example 347, (S*)-(6-methyl-1-(1H-pyrazol-3-yl)-6,7-dihydro-1H-[1,2,3]triazolo[4,5-c]pyridin-5(4H)-yl)(2-methyl-3-(trifluoromethyl)phenyl)methanone] here?
**A.** 2.0 % control

**Q.** What about the IC50 (human P2X7 [2]; [3]) of the same molecule?
**A.** 1200 nM

**Q.** What about the IC50 (rat P2X7; [4]) of the same molecule?
**A.** 324 nM

**Q.** Which “PBMC 10 μM (% control)” value (human P2X7 [1]; test compound 10 μM) does the source give for `Cc1cc(-n2nnc3c2CCN(C(=O)c2cc(Cl)cc(C(F)(F)F)c2)[C@@H]3C)ncc1F` (single isomer, unassigned) [Example 362, (R*)-(3-chloro-5-(trifluoromethyl)phenyl)(1-(5-fluoro-4-methylpyridin-2-yl)-4-methyl-6,7-dihydro-1H-[1,2,3]triazolo[4,5-c]pyridin-5(4H)-yl)methanone] here?
**A.** 90.2 % control

**Q.** And the IC50 (human P2X7 [2]; [3])?
**A.** > 10000 nM

**Q.** And the IC50 (rat P2X7; [4])?
**A.** > 10000 nM

**Q.** Which “PBMC 10 μM (% control)” value (human P2X7 [1]; test compound 10 μM) does the source give for `Cc1cc(-n2nnc3c2CCN(C(=O)c2cc(Cl)cc(C(F)(F)F)c2)[C@H]3C)ncc1F` (single isomer, unassigned) [Example 363, (S*)-(3-chloro-5-(trifluoromethyl)phenyl)(1-(5-fluoro-4-methylpyridin-2-yl)-4-methyl-6,7-dihydro-1H-[1,2,3]triazolo[4,5-c]pyridin-5(4H)-yl)methanone] here?
**A.** 63.9 % control

**Q.** And the IC50 (human P2X7 [2]; [3])?
**A.** > 10000 nM

**Q.** And the IC50 (rat P2X7; [4])?
**A.** > 10000 nM

**Q.** How did the “PBMC 10 μM (% control)” value (human P2X7 [1]; test compound 10 μM) turn out when `Cc1cc(-n2nnc3c2CCN(C(=O)c2ccnc(C(F)(F)F)c2Cl)[C@H]3C)ncc1F` (single isomer, unassigned) [Example 372, (S*)-(3-chloro-2-(trifluoromethyl)pyridin-4-yl)(1-(5-fluoro-4-methylpyridin-2-yl)-4-methyl-6,7-dihydro-1H-[1,2,3]triazolo[4,5-c]pyridin-5(4H)-yl)methanone] was run?
**A.** 1.3 % control

**Q.** What about the IC50 (human P2X7 [2]; [3]) of the same molecule?
**A.** 1630 nM

**Q.** And the IC50 (rat P2X7; [4])?
**A.** 8730 nM

**Q.** For `C[C@H]1Cc2c(nnn2-c2cc[nH]n2)CN1C(=O)c1ccnc(C(F)(F)F)c1Cl` (single isomer, unassigned) [Example 422, (S*)-(3-chloro-2-(trifluoromethyl)pyridin-4-yl)(6-methyl-1-(1H-pyrazol-3-yl)-6,7-dihydro-1H-[1,2,3]triazolo[4,5-c]pyridin-5(4H)-yl)methanone], which “PBMC 10 μM (% control)” value (human P2X7 [1]; [5]) is on record?
**A.** −9.6 % control

**Q.** And the IC50 (human P2X7 [2]; [6])?
**A.** 14.4 nM

**Q.** And the IC50 (rat P2X7; [7])?
**A.** 3.1 nM

**Q.** `C[C@H]1Cc2c(nnn2-c2cc[nH]n2)CN1C(=O)c1ccnc(C(F)(F)F)c1F` (single isomer, unassigned) [Example 424, (S*)-(3-fluoro-2-(trifluoromethyl)pyridin-4-yl)(6-methyl-1-(1H-pyrazol-3-yl)-6,7-dihydro-1H-[1,2,3]triazolo[4,5-c]pyridin-5(4H)-yl)methanone] was tested. Which “PBMC 10 μM (% control)” value (human P2X7 [1]; [5]) did it give?
**A.** −11.2 % control

**Q.** What about the IC50 (human P2X7 [2]; [6]) of the same molecule?
**A.** 14 nM

**Q.** And the IC50 (rat P2X7; [7])?
**A.** 4.6 nM

**Q.** How did the “PBMC 1 μM (% control)” value (human P2X7 [1]) turn out when `O=C(c1cccc(C(F)(F)F)c1Cl)N1CCc2c(ncn2-c2ccccc2)C1` [Example 2, (2-Chloro-3-(trifluoromethyl)phenyl)(1-phenyl-6,7-dihydro-1H-imidazo[4,5-c]pyridin-5(4H)-yl)methanone] was run?
**A.** 7.9 % control

**Q.** What about the IC50 (human P2X7 [2]; [3]) of the same molecule?
**A.** 12.1 nM

**Q.** What about the IC50 (rat P2X7; [4]) of the same molecule?
**A.** 2910 nM

**Q.** What does the source list for `CC(C)C1c2ncn(-c3cnccn3)c2CCN1C(=O)c1cccc(C(F)(F)F)c1Cl` (stereo not shown) [Example 16, (2-Chloro-3-(trifluoromethyl)phenyl)(4-isopropyl-1-(pyrazin-2-yl)-6,7-dihydro-1H-imidazo[4,5-c]pyridin-5(4H)-yl)methanone]?
**A.** PBMC 1 μM (% control) (human P2X7 [1]): 8.5 % control; IC50 (human P2X7 [2]; [3]): 93.7 nM; IC50 (rat P2X7; [4]): 257 nM

**Q.** Which results are given for `CCOC(=O)C1c2ncn(-c3ccccn3)c2CCN1C(=O)c1cccc(C(F)(F)F)c1Cl` (stereo not shown) [Example 24, Ethyl 5-(2-chloro-3-(trifluoromethyl)benzoyl)-1-(pyridin-2-yl)-4,5,6,7-tetrahydro-1H-imidazo[4,5-c]pyridine-4-carboxylate]?
**A.** PBMC 1 μM (% control) (human P2X7 [1]): 2.9 % control; IC50 (human P2X7 [2]; [3]): 23.3 nM; IC50 (rat P2X7; [4]): 26.2 nM

**Q.** For `CCOC(=O)C1c2ncn(-c3ccccc3)c2CCN1C(=O)c1cccc(C(F)(F)F)c1Cl` (stereo not shown) [Example 26, Ethyl 5-(2-chloro-3-(trifluoromethyl)benzoyl)-1-phenyl-4,5,6,7-tetrahydro-1H-imidazo[4,5-c]pyridine-4-carboxylate], which “PBMC 1 μM (% control)” value (human P2X7 [1]) is on record?
**A.** 14.0 % control

**Q.** And the IC50 (human P2X7 [2]; [3])?
**A.** 7.7 nM

**Q.** What about the IC50 (rat P2X7; [4]) of the same molecule?
**A.** 54.9 nM

**Q.** `CCOC(=O)C1c2ncn(-c3cnccn3)c2CCN1C(=O)c1cccc(C(F)(F)F)c1Cl` (stereo not shown) [Example 28, Ethyl 5-{[2-chloro-3-(trifluoromethyl)phenyl]carbonyl}-1-pyrazin-2-yl-4,5,6,7-tetrahydro-1H-imidazo[4,5-c]pyridine-4-carboxylate] was tested. Which “PBMC 1 μM (% control)” value (human P2X7 [1]) did it give?
**A.** 4.8 % control

**Q.** What about the IC50 (human P2X7 [2]; [3]) of the same molecule?
**A.** 6.5 nM

**Q.** What about the IC50 (rat P2X7; [4]) of the same molecule?
**A.** 36.2 nM

**Q.** How did the IC50 (human P2X7 [2]; [3]) turn out when `CCOC(=O)C1c2ncn(-c3cnccn3)c2CCN1C(=O)c1cccc(Cl)c1Cl` (stereo not shown) [Example 29, Ethyl 5-[(2,3-dichlorophenyl)carbonyl]-1-pyrazin-2-yl-4,5,6,7-tetrahydro-1H-imidazo[4,5-c]pyridine-4-carboxylate] was run?
**A.** 62 nM

**Q.** What about the IC50 (rat P2X7; [4]) of the same molecule?
**A.** 2500 nM

**Q.** Which results are given for `O=C(C1c2ncn(-c3ccccn3)c2CCN1C(=O)c1cccc(C(F)(F)F)c1Cl)N1CCC1` (stereo not shown) [Example 35, 4-(Azetidin-1-ylcarbonyl)-5-{[2-chloro-3-(trifluoromethyl)phenyl]carbonyl}-1-pyridin-2-yl-4,5,6,7-tetrahydro-1H-imidazo[4,5-c]pyridine]?
**A.** IC50 (human P2X7 [2]; [3]): 348 nM; IC50 (rat P2X7; [4]): 235 nM

**Q.** For `O=C(c1cccc(C(F)(F)F)c1Cl)N1CCc2c(nnn2-c2ccccc2)C1` [Example 61, 5-{[2-Chloro-3-(trifluoromethyl)phenyl]carbonyl}-1-phenyl-4,5,6,7-tetrahydro-1H-[1,2,3]triazolo[4,5-c]pyridine], which “PBMC 1 μM (% control)” value (human P2X7 [1]) is on record?
**A.** −0.1 % control

**Q.** What about the IC50 (human P2X7 [2]; [3]) of the same molecule?
**A.** 2.7 nM

**Q.** And the IC50 (rat P2X7; [4])?
**A.** 1870 nM

**Q.** What does the source list for `O=C(c1cccc(C(F)(F)F)c1F)N1CCc2c(nnn2-c2ncccn2)C1` [Example 66, 5-{[2-Fluoro-3-(trifluoromethyl)phenyl]carbonyl}-1-pyrimidin-2-yl-4,5,6,7-tetrahydro-1H-[1,2,3]triazolo[4,5-c]pyridine]?
**A.** PBMC 10 μM (% control) (human P2X7 [1]; test compound 10 μM): 2.7 % control; IC50 (human P2X7 [2]; [3]): 22.4 nM; IC50 (rat P2X7; [4]): 258 nM

**Q.** Which results are given for `O=C(c1cccc(Cl)c1Cl)N1CCc2c(nnn2-c2ncccn2)C1` [Example 67, 5-[(2,3-Dichlorophenyl)carbonyl]-1-pyrimidin-2-yl-4,5,6,7-tetrahydro-1H-[1,2,3]triazolo[4,5-c]pyridine]?
**A.** PBMC 10 μM (% control) (human P2X7 [1]; test compound 10 μM): 6.5 % control; IC50 (human P2X7 [2]; [3]): 2 nM; IC50 (rat P2X7; [4]): 53 nM

**Q.** `O=C(c1cccc(C(F)(F)F)c1Cl)N1CCc2c(nnn2-c2ccn[nH]2)C1` [Example 68, 5-{[2-Chloro-3-(trifluoromethyl)phenyl]carbonyl}-1-(1H-pyrazol-5-yl)-4,5,6,7-tetrahydro-1H-[1,2,3]triazolo[4,5-c]pyridine] was tested. Which IC50 (human P2X7 [2]; [3]) did it give?
**A.** 39.4 nM

**Q.** And the IC50 (rat P2X7; [4])?
**A.** 210 nM

**Q.** What does the source list for `Cc1ccnc(-n2nnc3c2CCN(C(=O)c2cccc(OC(F)(F)F)c2)C3C)c1` (stereo not shown) [Example 375, (4-methyl-1-(4-methylpyridin-2-yl)-6,7-dihydro-1H-[1,2,3]triazolo[4,5-c]pyridin-5(4H)-yl)(3-(trifluoromethoxy)phenyl)methanone]?
**A.** PBMC 10 μM (% control) (human P2X7 [1]; test compound 10 μM): 63.3 % control; IC50 (human P2X7 [2]; [3]): > 10000 nM

**Q.** With `Cc1cc(-n2nnc3c2CCN(C(=O)c2cccc(C(F)(F)F)c2Cl)C3C)ncn1` (stereo not shown) [Example 402, (2-chloro-3-(trifluoromethyl)phenyl)(4-methyl-1-(6-methylpyrimidin-4-yl)-6,7-dihydro-1H-[1,2,3]triazolo[4,5-c]pyridin-5(4H)-yl)methanone] as the molecule, how does the “PBMC 10 μM (% control)” value (human P2X7 [1]; test compound 10 μM) read?
**A.** 0.3 % control

**Q.** And the IC50 (human P2X7 [2]; [3])?
**A.** 879 nM
